Experimental data: patent publication US9346761B2, “Arginine methyltransferase inhibitors and uses thereof” (Epizyme, Inc., priority 2013, dated 2016)
pIC50: −log10 of the molar value.

How the values were obtained:
[1] = target: T1, Full-length human PRMT1 isoform 1 (Homo sapiens, UniProt Q99873); test: PRMT1 biochemical assay (3H-SAM Flashplate, peptide substrate)
T1 construct: GST-tagged PRMT1; made in house; host or cells: High Five insect cells (baculovirus, pFastBacI)
Summary of the method: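 Tritiated methyl transfer from 3H-SAM onto biotinylated peptide, captured on streptavidin Flashplates and counted. Baculovirus-expressed GST-PRMT1 and compound were preincubated 30 min at room temperature in Bicine buffer pH 7.6. Cold SAM at 300 uM final ended the reaction.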

Full-length human PRMT6 = target: T2, Full-length human PRMT6 (Homo sapiens, UniProt Q96LA8); test: PRMT6 biochemical assay (3H-SAM Flashplate, peptide substrate)
T2 construct: Flag-PRMT6-His was eluted with 200 ug/ml FLAG peptide in the same buffer; made in house; host or cells: HEK 293F cells (BacMam virus, pFastBacMam)
T2 sequence (Q96LA8 with tags, fused parts or gaps): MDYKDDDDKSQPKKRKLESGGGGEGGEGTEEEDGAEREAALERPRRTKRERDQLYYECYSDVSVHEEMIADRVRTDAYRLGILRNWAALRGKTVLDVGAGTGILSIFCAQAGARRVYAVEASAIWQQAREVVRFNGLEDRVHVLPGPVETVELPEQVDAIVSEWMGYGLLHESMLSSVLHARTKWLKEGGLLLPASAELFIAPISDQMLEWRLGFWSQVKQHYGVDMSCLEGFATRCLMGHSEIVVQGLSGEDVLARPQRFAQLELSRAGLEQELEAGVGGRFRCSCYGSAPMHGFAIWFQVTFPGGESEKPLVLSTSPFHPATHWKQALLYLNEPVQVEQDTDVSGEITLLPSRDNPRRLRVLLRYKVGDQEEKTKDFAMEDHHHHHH
Summary of the method: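 Read-out is 3H-methylated histone H4 (36-50) peptide bound to streptavidin Flashplates after a cold-SAM stop. Baculovirus-expressed Flag-PRMT6-His met compound for 30 min at room temperature before SAM and peptide; Bicine pH 7.6 buffer. IC50 fitted to % inhibition normalized to SAH (min) and DMSO (max).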

T1 sequence (Q99873 with tags, fused parts or gaps): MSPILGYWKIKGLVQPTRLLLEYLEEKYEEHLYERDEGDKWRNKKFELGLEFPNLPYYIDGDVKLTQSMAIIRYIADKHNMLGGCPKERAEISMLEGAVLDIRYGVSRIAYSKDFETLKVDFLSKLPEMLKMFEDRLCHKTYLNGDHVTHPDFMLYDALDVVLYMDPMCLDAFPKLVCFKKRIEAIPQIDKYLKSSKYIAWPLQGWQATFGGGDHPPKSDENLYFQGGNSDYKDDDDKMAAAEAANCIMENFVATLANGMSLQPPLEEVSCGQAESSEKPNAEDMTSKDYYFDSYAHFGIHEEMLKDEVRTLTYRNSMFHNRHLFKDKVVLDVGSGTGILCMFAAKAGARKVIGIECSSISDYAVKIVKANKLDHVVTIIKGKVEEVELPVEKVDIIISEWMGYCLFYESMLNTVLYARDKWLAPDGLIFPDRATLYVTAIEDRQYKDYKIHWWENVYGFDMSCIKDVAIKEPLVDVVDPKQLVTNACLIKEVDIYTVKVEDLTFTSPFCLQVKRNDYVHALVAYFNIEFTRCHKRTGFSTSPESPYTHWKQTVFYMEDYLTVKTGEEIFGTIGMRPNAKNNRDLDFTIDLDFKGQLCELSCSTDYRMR

Row | Structure (SMILES) | pIC50 [1] | pIC50 (Full-length human PRMT6)
1 | CNCCN(C)Cc1cn(C2CC2)nc1-c1ccc(F)cc1 [Compound 13] | 5.52 to 6.00 | 6.00 to 7.00
2 | CNCCN(C)Cc1cnn(C2CC2)c1-c1ccc(F)cc1 [Compound 14] | 6.00 to 7.00 | > 7.00
3 | CNCCN(C)Cc1cn(C(C)C)nc1-c1ccc(F)cc1 [Compound 15] | 5.00 to 5.52 | 6.00 to 7.00
4 | CNCCN(C)Cc1cnn(C(C)C)c1-c1ccc(F)cc1 [Compound 16] | 5.52 to 6.00 | > 7.00
5 | CNCCN(C)Cc1cn[nH]c1-c1ccc(C#N)cc1 [Compound 17] | > 7.00 | > 7.00
6 | CNCCN(C)Cc1cn[nH]c1-c1cc(F)cc(F)c1 [Compound 18] | > 7.00 | > 7.00
7 | CCCc1ccc(-c2n[nH]cc2CN(C)CCNC)cc1 [Compound 20] | > 7.00 | > 7.00
8 | CNCCN(C)Cc1c[nH]nc1-c1cccc([N+](=O)[O-])c1 [Compound 21] | > 7.00 | > 7.00
9 | CNCCN(C)Cc1c[nH]nc1-c1cccc(C#N)c1 [Compound 22] | 6.00 to 7.00 | > 7.00
10 | CNCCN(C)Cc1c[nH]nc1-c1ccccc1OC [Compound 23] | 6.00 to 7.00 | 6.00 to 7.00
11 | CNCCN(C)Cc1c[nH]nc1-c1cccc(OC)c1 [Compound 24] | > 7.00 | > 7.00
12 | CNCCN(C)Cc1c[nH]nc1-c1ccc(OC)cc1 [Compound 25] | > 7.00 | > 7.00
13 | CNCCN(C)Cc1c[nH]nc1-c1cccc(O)c1 [Compound 26] | 6.00 to 7.00 | > 7.00
14 | CNCCN(C)Cc1c[nH]nc1-c1ccc(O)cc1 [Compound 27] | > 7.00 | > 7.00
15 | CNCCN(C)Cc1c[nH]nc1-c1ccc(CO)cc1 [Compound 28] | > 7.00 | > 7.00
16 | CNCCN(C)Cc1c[nH]nc1-c1ccc(C)cc1C [Compound 29] | 6.00 to 7.00 | > 7.00
17 | CNCCN(C)Cc1cn(CCCC(O)CO)nc1-c1ccc(F)cc1 (stereo not drawn) [Compound 30] | 5.00 to 5.52 | 6.00 to 7.00
18 | CNCCN(C)Cc1cnn(CCCC(O)CO)c1-c1ccc(F)cc1 (stereo not drawn) [Compound 31] | 6.00 to 7.00 | 6.00 to 7.00
19 | CNCCN(C)Cc1c[nH]nc1-c1ccc(N)cc1 [Compound 33] | 6.00 to 7.00 | > 7.00
20 | CNCCN(C)Cc1c[nH]nc1-c1ccc(Oc2ccccc2)cc1 [Compound 37] | > 7.00 | > 7.00

Row | Structure (SMILES) | pIC50 [1] | pIC50 (Full-length human PRMT6)
21 | CNCCN(C)Cc1c[nH]nc1-c1ccccc1C(F)(F)F [Compound 38] | 5.52 to 6.00 | 6.00 to 7.00
22 | CNCCN(C)Cc1c[nH]nc1-c1ccccc1OC(F)(F)F [Compound 40] | 6.00 to 7.00 | 6.00 to 7.00
23 | CCNC(=O)c1cccc(-c2n[nH]cc2CN(C)CCNC)c1 [Compound 43] | 6.00 to 7.00 | > 7.00
24 | CNCCN(C)Cc1c[nH]nc1-c1ccc(C(F)(F)F)cc1 [Compound 174] | > 7.00 | > 7.00
25 | CC(C)CC(=O)N1CCN(c2ccc(-c3n[nH]cc3CN(C)CCN)cc2)CC1 [Compound 180] | 6.00 to 7.00 | > 7.00
26 | CNCCN(C)Cc1c[nH]nc1-c1ccc(Cl)c(F)c1 [Compound 182] | > 7.00 | > 7.00
27 | CN(CCNC1CC1)Cc1c[nH]nc1-c1ccc(C#N)cc1 [Compound 183] | 5.52 to 6.00 | 6.00 to 7.00
28 | CN(CCN(C)C1CC1)Cc1c[nH]nc1-c1ccc(C#N)cc1 [Compound 184] | 5.52 to 6.00 | 5.52 to 6.00
29 | CN(CCN1CCC1)Cc1c[nH]nc1-c1ccc(C#N)cc1 [Compound 185] | 5.52 to 6.00 | 6.00 to 7.00
30 | CC(C)Oc1cccc(-c2n[nH]cc2CN(C)CCN)c1 [Compound 187] | 6.00 to 7.00 | > 7.00
31 | CC(C)Oc1cc(-c2n[nH]cc2CN(C)CCN)ccc1F [Compound 188] | 6.00 to 7.00 | > 7.00
32 | CCC(=O)N1CCN(c2ccc(-c3n[nH]cc3CN(C)CCN)cc2)CC1 [Compound 189] | 6.00 to 7.00 | > 7.00
33 | CC(C)CN1C(=O)COc2ccc(-c3n[nH]cc3CN(C)CCN)cc21 [Compound 191] | 6.00 to 7.00 | 6.00 to 7.00
34 | CN(CCN)Cc1c[nH]nc1-c1ccc2c(c1)OCC(=O)N2C [Compound 192] | 6.00 to 7.00 | > 7.00
35 | CC(C)CN1C(=O)COc2cc(-c3n[nH]cc3CN(C)CCN)ccc21 [Compound 193] | > 7.00 | 6.00 to 7.00
36 | CN(CCN)Cc1c[nH]nc1-c1ccc(OCCO)cc1 [Compound 194] | > 7.00 | > 7.00
37 | CN(CCN)Cc1c[nH]nc1-c1ccc(OCCCO)cc1 [Compound 195] | > 7.00 | > 7.00
38 | CN(CCN)Cc1c[nH]nc1-c1ccc2c(c1)N(C)C(=O)CO2 [Compound 196] | 6.00 to 7.00 | > 7.00
39 | CCNC(=O)c1cccc(-c2n[nH]cc2CN(C)CCN)c1 [Compound 197] | 6.00 to 7.00 | > 7.00
40 | CCN(C)C(=O)c1cccc(-c2n[nH]cc2CN(C)CCN)c1 [Compound 198] | 5.52 to 6.00 | 6.00 to 7.00

Row | Structure (SMILES) | pIC50 [1] | pIC50 (Full-length human PRMT6)
41 | Cc1cc(-c2n[nH]cc2CN(C)CCN)cc(C)c1OC(C)C [Compound 199, N^1-((3-(4-isopropoxy-3,5-dimethylphenyl)-1H-pyrazol-4-yl)methyl)-N^1-methylethane-1,2-diamine] | > 7.00 | 6.00 to 7.00
42 | CN(CCN)Cc1c[nH]nc1-c1ccc(Oc2ccccc2)c(C#N)c1 [Compound 202] | > 7.00 | > 7.00
43 | CN(CCN)Cc1n[nH]cc1-c1ccc(Oc2ccccc2)cc1 [Compound 203] | > 7.00 | > 7.00
44 | CNCCN(C)Cc1n[nH]cc1-c1ccc(Oc2ccccc2)cc1 [Compound 204] | > 7.00 | > 7.00
45 | CN(CCN)Cc1c[nH]nc1-c1ccc(Oc2cccc(F)c2)cc1 [Compound 205] | > 7.00 | > 7.00
46 | CNCCN(C)Cc1cn(C)nc1-c1ccc(OC(C)C)c(Cl)c1 [Compound 206] | > 7.00 | > 7.00
47 | CNCCN(C)Cc1cn(C)nc1-c1ccc(Oc2ccccc2)cc1 [Compound 207] | > 7.00 | > 7.00
48 | CNCCN(C)Cc1cnn(C)c1-c1ccc(Oc2ccccc2)cc1 [Compound 208] | > 7.00 | > 7.00
49 | CNCCN(C)Cc1c[nH]nc1-c1ccc(OCCCOC)cc1 [Compound 209] | > 7.00 | > 7.00
50 | CNCCN(C)Cc1n[nH]cc1-c1ccc(OC(C)C)c(F)c1 [Compound 210] | > 7.00 | > 7.00
51 | CC(C)Oc1ccc(-c2c[nH]nc2CN(C)CCN)cc1Cl [Compound 211] | > 7.00 | > 7.00
52 | CNCCN(C)Cc1n[nH]cc1-c1ccc(OC(C)C)c(Cl)c1 [Compound 212] | > 7.00 | > 7.00
53 | CCn1cc(CN(C)CCNC)c(-c2ccc(OC(C)C)cc2)n1 [Compound 213] | > 7.00 | > 7.00
54 | CNCCN(C)Cc1cn(C2CCCC2)nc1-c1ccc(OC(C)C)cc1 [Compound 214] | > 7.00 | 6.00 to 7.00
55 | CNCCN(C)Cc1cn(C2CCOC2)nc1-c1ccc(OC(C)C)cc1 (stereo not drawn) [Compound 215] | > 7.00 | 6.00 to 7.00
56 | CNCCN(C)Cc1cnn(C2CCOC2)c1-c1ccc(OC(C)C)cc1 (stereo not drawn) [Compound 216] | > 7.00 | > 7.00
57 | CNCCN(C)Cc1cn(Cc2ccccc2)nc1-c1ccc(OC(C)C)cc1 [Compound 217] | > 7.00 | > 7.00
58 | C=CCn1cc(CN(C)CCNC)c(-c2ccc(OC(C)C)cc2)n1 [Compound 218] | > 7.00 | 6.00 to 7.00
59 | C=CCn1ncc(CN(C)CCNC)c1-c1ccc(OC(C)C)cc1 [Compound 219] | > 7.00 | > 7.00
60 | CNCCN(C)Cc1c[nH]nc1-c1ccc(Oc2ccccc2)c(C#N)c1 [Compound 221] | > 7.00 | > 7.00
